Assay results published in US10420341B2, “Herbicidal phenylpyrimidines” (BASF SE, priority 2015, dated 2019).

Tests used:
ALOMY [1] = test: greenhouse post-emergence herbicidal test; type: in vivo, Alopercurus myosuroides; details: post-emergence method, application rate 500 g/ha, scale from 0 to 100
Summary of the method: (§1)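 Greenhouse plants, grown to 3–15 cm, were treated post-emergence with emulsified or suspended compound and assessed over 2–4 weeks on a 0–100 damage scale.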

POLCO = test: greenhouse post-emergence herbicidal test; type: in vivo, Polygonum convolvulus; details: post-emergence method, application rate 500 g/ha, scale from 0 to 100
Summary of the method: as §1

ALOMY [2] = test: greenhouse pre-emergence herbicidal test; type: in vivo, Alopercurus myosuroides; details: pre-emergence method, application rate 500 g/ha, scale from 0 to 100
Description: The seeds of the test plants were sown separately for each species. For the pre-emergence treatment, the active ingredients, which had been suspended or emulsified in water, were applied directly after sowing by means of finely distributing nozzles. The containers were irrigated gently to promote germination and growth and subsequently covered with transparent plastic hoods until the plants had rooted. This cover caused uniform germination of the test plants, unless this had been impaired by the active ingredients. Depending on the species, the plants were kept at 10-25° C. or 20-35° C., respectively. The test period extended over 2 to 4 weeks. During this time, the plants were tended, and their response to the individual treatments was evaluated. Evaluation was carried out using a scale from 0 to 100. 100 means no emergence of the plants, or complete destruction of at least the aerial moieties, and 0 means no damage, or normal course of growth. […] The plants used in the greenhouse experiments were of the following species: [table]

APESV = test: greenhouse pre-emergence herbicidal test; type: in vivo, Apera spica-venti; details: pre-emergence method, application rate 500 g/ha, scale from 0 to 100
Summary of the method: (§2)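 Damage was rated on a 0 to 100 scale, where 0 is normal growth and 100 is no emergence or full destruction of aerial parts, after 2 to 4 weeks. Treatment was applied pre-emergence, right after sowing, as an aqueous suspension or emulsion via fine nozzles.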

AMARE = test: greenhouse post-emergence herbicidal test; type: in vivo, Amaranthus retroflexus; details: post-emergence method, application rate 500 g/ha, scale from 0 to 100
Summary of the method: as §1

ECHCG [3] = test: greenhouse pre-emergence herbicidal test; type: in vivo, Echinocloa crus-galli; details: pre-emergence method, application rate 500 g/ha, scale from 0 to 100
Summary of the method: as §2

ECHCG [4] = test: greenhouse post-emergence herbicidal test; type: in vivo, Echinocloa crus-galli; details: post-emergence method, application rate 500 g/ha, scale from 0 to 100
Summary of the method: as §1

AVEFA = test: greenhouse post-emergence herbicidal test; type: in vivo, Avena fatua; details: post-emergence method, application rate 500 g/ha, scale from 0 to 100
Summary of the method: as §1

ABUTH = test: greenhouse post-emergence herbicidal test; type: in vivo, Abutilon theophrasti; details: post-emergence method, application rate 500 g/ha, scale from 0 to 100
Description: The seeds of the test plants were sown separately for each species. For the post-emergence treatment, the test plants were first grown to a height of 3 to 15 cm, depending on the plant habit, and only then treated with the active ingredients which had been suspended or emulsified in water. For this purpose, the test plants were either sown directly and grown in the same containers, or they were first grown separately as seedlings and transplanted into the test containers a few days prior to treatment. Depending on the species, the plants were kept at 10-25° C. or 20-35° C., respectively. The test period extended over 2 to 4 weeks. During this time, the plants were tended, and their response to the individual treatments was evaluated. Evaluation was carried out using a scale from 0 to 100. 100 means no emergence of the plants, or complete destruction of at least the aerial moieties, and 0 means no damage, or normal course of growth. […] The plants used in the greenhouse experiments were of the following species: [table]

Structure (SMILES)	herbicidal activity against ALOMY (ALOMY [1])	herbicidal activity against POLCO (POLCO)	herbicidal activity against ALOMY (ALOMY [2])	herbicidal activity against APESV (APESV)	herbicidal activity against AMARE (AMARE)	herbicidal activity against ECHCG (ECHCG [3])	herbicidal activity against ECHCG (ECHCG [4])	herbicidal activity against AVEFA (AVEFA)	herbicidal activity against ABUTH (ABUTH)
O=C(O)c1nc(C2CC2)ncc1-c1c(Cl)cc(F)cc1Cl [example 147]	very good (a very good herbicidal activity is given at values of at least 85)	very good (a very good herbicidal activity is given at values of at least 85)	very good (a very good herbicidal activity is given at values of at least 85)	very good (a very good herbicidal activity is given at values of at least 85)	–	–	–	–	–
O=C(O)c1nc(C2CC2)ncc1-c1ccccc1Br [example 152]	–	–	good (A good herbicidal activity is given at values of at least 70)	very good (a very good herbicidal activity is given at values of at least 85)	good (A good herbicidal activity is given at values of at least 70)	very good (a very good herbicidal activity is given at values of at least 85)	–	–	–
Cc1cccc(C)c1-c1cnc(C2CC2)nc1C(=O)O [example 162]	very good (a very good herbicidal activity is given at values of at least 85)	–	very good (a very good herbicidal activity is given at values of at least 85)	very good (a very good herbicidal activity is given at values of at least 85)	–	very good (a very good herbicidal activity is given at values of at least 85)	very good (a very good herbicidal activity is given at values of at least 85)	–	–
Cc1ccc(Cl)cc1-c1cnc(C2CC2)nc1C(=O)O [example 164]	–	very good (a very good herbicidal activity is given at values of at least 85)	very good (a very good herbicidal activity is given at values of at least 85)	very good (a very good herbicidal activity is given at values of at least 85)	–	very good (a very good herbicidal activity is given at values of at least 85)	very good (a very good herbicidal activity is given at values of at least 85)	–	–
O=C(O)c1nc(C2CC2)ncc1-c1ccccc1C(F)(F)F [example 176]	–	very good (a very good herbicidal activity is given at values of at least 85)	very good (a very good herbicidal activity is given at values of at least 85)	very good (a very good herbicidal activity is given at values of at least 85)	–	–	–	very good (a very good herbicidal activity is given at values of at least 85)	–
COC(=O)c1nc(C2CC2)ncc1-c1ccccc1F [example 190]	–	good (A good herbicidal activity is given at values of at least 70)	very good (a very good herbicidal activity is given at values of at least 85)	very good (a very good herbicidal activity is given at values of at least 85)	–	very good (a very good herbicidal activity is given at values of at least 85)	–	–	–
COC(=O)c1nc(C2CC2)ncc1-c1ccccc1Cl [example 201]	very good (a very good herbicidal activity is given at values of at least 85)	very good (a very good herbicidal activity is given at values of at least 85)	very good (a very good herbicidal activity is given at values of at least 85)	very good (a very good herbicidal activity is given at values of at least 85)	–	very good (a very good herbicidal activity is given at values of at least 85)	–	–	–
COC(=O)c1nc(C2CC2)ncc1-c1cc(F)ccc1Cl [example 203]	good (A good herbicidal activity is given at values of at least 70)	–	very good (a very good herbicidal activity is given at values of at least 85)	very good (a very good herbicidal activity is given at values of at least 85)	–	very good (a very good herbicidal activity is given at values of at least 85)	very good (a very good herbicidal activity is given at values of at least 85)	–	–
COC(=O)c1nc(C2CC2)ncc1-c1cc(C)ccc1Cl [example 205]	good (A good herbicidal activity is given at values of at least 70)	–	good (A good herbicidal activity is given at values of at least 70)	very good (a very good herbicidal activity is given at values of at least 85)	–	very good (a very good herbicidal activity is given at values of at least 85)	very good (a very good herbicidal activity is given at values of at least 85)	–	–
COC(=O)c1nc(C2CC2)ncc1-c1ccccc1Br [example 213]	good (A good herbicidal activity is given at values of at least 70)	–	very good (a very good herbicidal activity is given at values of at least 85)	very good (a very good herbicidal activity is given at values of at least 85)	–	very good (a very good herbicidal activity is given at values of at least 85)	good (A good herbicidal activity is given at values of at least 70)	–	–
COC(=O)c1nc(C2CC2)ncc1-c1cc(F)ccc1C [example 226]	very good (a very good herbicidal activity is given at values of at least 85)	very good (a very good herbicidal activity is given at values of at least 85)	very good (a very good herbicidal activity is given at values of at least 85)	good (A good herbicidal activity is given at values of at least 70)	–	very good (a very good herbicidal activity is given at values of at least 85)	–	–	–
COC(=O)c1nc(C2CC2)ncc1-c1cc(Cl)ccc1C [example 227]	very good (a very good herbicidal activity is given at values of at least 85)	–	very good (a very good herbicidal activity is given at values of at least 85)	very good (a very good herbicidal activity is given at values of at least 85)	–	very good (a very good herbicidal activity is given at values of at least 85)	very good (a very good herbicidal activity is given at values of at least 85)	–	–
COC(=O)c1nc(C2CC2)ncc1-c1cc(C)c(F)cc1C [example 230]	good (A good herbicidal activity is given at values of at least 70)	–	good (A good herbicidal activity is given at values of at least 70)	very good (a very good herbicidal activity is given at values of at least 85)	–	very good (a very good herbicidal activity is given at values of at least 85)	very good (a very good herbicidal activity is given at values of at least 85)	–	–
CCOC(=O)c1nc(C2CC2)ncc1-c1ccccc1Cl [example 251]	–	–	very good (a very good herbicidal activity is given at values of at least 85)	very good (a very good herbicidal activity is given at values of at least 85)	very good (a very good herbicidal activity is given at values of at least 85)	–	–	–	very good (a very good herbicidal activity is given at values of at least 85)
COC(=O)C(C)(C)SC(=O)c1nc(C2CC2)ncc1-c1ccccc1Cl [example 283]	–	very good (a very good herbicidal activity is given at values of at least 85)	very good (a very good herbicidal activity is given at values of at least 85)	very good (a very good herbicidal activity is given at values of at least 85)	–	–	–	very good (a very good herbicidal activity is given at values of at least 85)	–
